Assay results published in PubChem BioAssay AID806 (SRMLSC, 2007).
Calls of active or inactive are those of the source. No rule for the calls is given here.

Test system: virus-infected cells, CPE inhibition, dose response
Assay: PubChem AID 806
Conditions: for EC90: measured here: EC90 CPE inhibition; for CC50: measured here: cytotoxicity, cell viability IC50

SMILES	EC50	EC90 [µM]	CC50 [µM]
COCCNC(=O)C(c1ccccc1)N(CCOC)C(=O)Cn1nnc2ccccc21 (stereo not drawn)	> 60 µM (inactive)	> 60	> 60
Cc1ccc(S(=O)(=O)N2CCCCC2C(=O)N2CCN(C)CC2)cc1 (stereo not drawn)	> 60 µM (inactive)	> 60	> 60
CC(C)NC(=O)CN1CCN(c2ncccn2)CC1	> 60 µM (inactive)	> 60	> 60
COC(=O)c1ccc(CN(C(C)=O)c2ccccc2)o1	> 60 µM (inactive)	> 60	> 60
O=C(NC1CCS(=O)(=O)C1)C1CCCCN1S(=O)(=O)c1ccc(Cl)cc1 (stereo not drawn)	> 60 µM (inactive)	> 60	> 60
O=C1CC(C(=O)Nc2ccccc2)C2(CCCC2)O1 (stereo not drawn)	> 60 µM (inactive)	> 60	> 60
O=C1CC(C(=O)Nc2ccc(Br)cc2)C2(CCCC2)O1 (stereo not drawn)	> 60 µM (inactive)	> 60	> 60
COc1ccc(NC(=O)C2CC(=O)OC23CCCCC3)cc1 (stereo not drawn)	> 60 µM (inactive)	> 60	> 60
Cc1ccc2c(C)c(C(=O)Nc3cccnc3)oc2c1	> 60 µM (inactive)	> 60	> 60
COc1ccc(-c2nnc3ccc(SCC(=O)NCc4ccco4)nn23)cc1OC	> 60 µM (inactive)	> 60	> 60
N#CCCCSc1nnc(-c2ccccn2)o1	> 60 µM (inactive)	> 60	> 60
CC(C)(C)c1ccc(S(=O)(=O)N2CCCCC2C(=O)NCc2ccccn2)cc1 (stereo not drawn)	> 60 µM (inactive)	> 60	> 60
CCS(=O)(=O)Nc1cc(-c2nc3cccnc3s2)ccc1C	> 60 µM (inactive)	> 60	> 60
CC(C)(C)c1ccc(OCCn2ccccc2=O)cc1	> 60 µM (inactive)	> 60	40.9
COc1ccc(-c2nc3nc(C)c(Cc4ccccc4)c(=O)n3[nH]2)cc1	> 60 µM (inactive)	> 60	> 60
CCSc1nnc(-c2ccc(OC)cc2)o1	> 60 µM (inactive)	> 60	> 60
COc1ccc(-n2ncc3c(N4CCCc5ccccc54)ncnc32)cc1	> 60 µM (inactive)	> 60	> 60
CCN(CC)C(=O)CN1CCN(c2ncccn2)CC1	> 60 µM (inactive)	> 60	> 60
O=C(Nc1ccc2c(c1)CCC2)c1cc2ccccc2o1	> 60 µM (inactive)	> 60	> 60
COc1ccc(C(=O)C(CN2CCOCC2)c2ccccc2)cc1F (stereo not drawn)	> 60 µM (inactive)	> 60	> 60
CN(C)c1cccc(C(=O)Nc2ccc3nc4n(c(=O)c3c2)CCCCC4)c1	17.4 µM	> 60	> 60
O=Nc1c(O)n(Cc2ccc(Cl)cc2)c2ccccc12	> 60 µM (inactive)	> 60	> 60
COc1ccccc1CNC(=O)c1c(O)c2cc(OC)c(OC)cc2[nH]c1=O	> 60 µM (inactive)	> 60	> 60
O=C(C1CCCCN1S(=O)(=O)c1ccccc1)N1CCCCC1 (stereo not drawn)	> 60 µM (inactive)	> 60	> 60

SMILES	EC50	EC90 [µM]	CC50 [µM]
Cc1ccc(-n2nc(C(=O)N3CCOCC3)cc2-c2ccc(Cl)cc2)cc1	> 60 µM (inactive)	> 60	7.33
O=C(Nc1cccnc1)c1cc2c(ccc3ccccc32)o1	> 60 µM (inactive)	> 60	> 60
O=C(c1cc(-c2ccc(Cl)cc2)n(-c2cc(Cl)ccc2Cl)n1)N1CCOCC1	> 60 µM (inactive)	> 60	> 60
COc1ccc(C)cc1NC(=O)c1cc2ccccc2o1	> 60 µM (inactive)	> 60	> 60
COCCNC(=O)C(c1ccccc1)N(C(=O)Cn1nnc2ccccc21)c1cccnc1 (stereo not drawn)	> 60 µM (inactive)	> 60	> 60
O=C(NCC1CCCO1)C1CCCCN1S(=O)(=O)c1ccc(F)cc1 (stereo not drawn)	> 60 µM (inactive)	> 60	> 60
O=C1NCCCc2c1oc1ccc(O)cc21	> 60 µM (inactive)	> 60	> 60
CC(C)c1cccc(C(C)C)c1OCCn1ccnc1	> 60 µM (inactive)	> 60	> 60
COc1ccc(NC(=O)c2cc3ccccc3o2)cc1	> 60 µM (inactive)	> 60	> 60
COC(=O)CSc1nnc([C@H](Cc2ccccc2)NC(=O)OC(C)(C)C)o1	> 60 µM (inactive)	> 60	> 60
O=C(CSc1ccc2nnc(-c3ccccc3)n2n1)NCc1ccco1	> 60 µM (inactive)	> 60	> 60
CC1CCCN(c2ccc(C(=O)NCc3cccs3)cn2)C1 (stereo not drawn)	> 60 µM (inactive)	> 60	> 60
COc1ccc(C(=O)C(CN2CCOCC2)c2ccccc2)cc1 (stereo not drawn)	> 60 µM (inactive)	> 60	> 60
C=CCSc1nnc(-c2cccnc2)o1		> 60	> 60
COc1ccc(-n2ncc3c(Nc4cccc(C)c4)ncnc32)cc1	> 60 µM (inactive)	> 60	> 60
N#CCC(=O)N1CCn2c1nc1ccccc12	> 60 µM (inactive)	> 60	> 60
COc1ccccc1Cn1c(=O)c2ccccc2n2c(SCc3csc(C)n3)nnc12	> 60 µM (inactive)	> 60	> 60
O=c1[nH]c2cccnc2n1Cc1ccccc1	> 60 µM (inactive)	> 60	> 60
CCc1c(C)nc2[nH]nc(-c3ccccc3)n2c1=O	> 60 µM (inactive)	> 60	> 60
Cc1c(C(=O)Nc2ccccn2)oc2ccccc12	> 60 µM (inactive)	> 60	> 60
Cc1cc(C(=O)NCc2ccccc2)c(=O)[nH]c1C	> 60 µM (inactive)	> 60	> 60
Cc1ccc(S(=O)(=O)N2CCCCC2C(=O)NCc2ccco2)cc1 (stereo not drawn)	> 60 µM (inactive)	> 60	> 60
COc1ccccc1CNC(=O)c1ccc(S(=O)(=O)N2CCCC2)cc1	> 60 µM (inactive)	> 60	> 60
CCOC(=O)c1cnn(-c2ccccc2)c1-n1cccc1C(=O)C(=O)Nc1ccccc1C(F)(F)F	> 60 µM (inactive)	> 60	> 60

SMILES	EC50	EC90 [µM]	CC50 [µM]
COc1ccc(OC)c(Nc2ncnc3c2cnn3-c2cccc(C)c2)c1	> 60 µM (inactive)	> 60	> 60
COc1c(C(C)C)cc(NC(C)=O)cc1C(C)C	> 60 µM (inactive)	> 60	> 60
CSc1nnc(-c2ccccc2Cl)o1	> 60 µM (inactive)	> 60	> 60
COc1ccc(-n2ncc3c(N4CCc5ccccc54)ncnc32)cc1	> 60 µM (inactive)	> 60	> 60
Cc1cccc(NC(=O)c2cc3ccccc3o2)c1	> 60 µM (inactive)	> 60	> 60
COc1ccc(NS(=O)(=O)c2ccc(OC)c(N(C)S(=O)(=O)c3ccc(Cl)cc3)c2)cc1		> 60	22.9
CCc1ccc(NC(=O)CCS(=O)(=O)c2cccc3nsnc23)cc1	> 60 µM (inactive)	> 60	> 60
CCN(CC)C(=O)CSc1nnc2sc3ccccc3n12	> 60 µM (inactive)	> 60	> 60
CSc1nnc(-c2ccc(Cl)cc2Cl)o1	48.5 µM (inactive)	> 60	> 60
O=C(CN1CCN(c2ncccn2)CC1)NCc1ccccc1	> 60 µM (inactive)	> 60	> 60
O=C1c2ccccc2-c2onc3ccc(Oc4ccccc4)c1c23	> 60 µM (inactive)	> 60	17.7
O=C(COc1ccccc1)N(Cc1ccco1)c1ccc(O)cc1	> 60 µM (inactive)	> 60	> 60
O=C1NCCCc2c1oc1cc(Br)c(O)c(Br)c21	> 60 µM (inactive)	> 60	> 60
CN1c2ccsc2C(O)=C(C(=S)Nc2ccccc2)S1(=O)=O	> 60 µM (inactive)	> 60	> 60
CC1CCN(c2ccc(C(=O)NCc3cccs3)cn2)CC1	> 60 µM (inactive)	> 60	> 60
O=C(c1ccc(S(=O)(=O)N2CCOCC2)cc1)N1CCc2ccccc2C1	> 60 µM (inactive)	> 60	> 60
CCOC(=O)CN(C(=O)Cn1nnc2ccccc21)C(C(=O)NCCOC)c1ccccc1 (stereo not drawn)	> 60 µM (inactive)	> 60	> 60
O=C1CC(C(=O)Nc2cccc3ccccc23)C2(CCCC2)O1 (stereo not drawn)	> 60 µM (inactive)	> 60	> 60
O=C(C1CCCCN1S(=O)(=O)c1ccccc1)N1CCN(Cc2ccccc2)CC1 (stereo not drawn)	> 60 µM (inactive)	> 60	> 60
O=C1CC(C(=O)Nc2ccccc2)C2(CCCCC2)O1 (stereo not drawn)	> 60 µM (inactive)	> 60	> 60
CCOC(=O)/C=C1\SCC(=O)N1CC(=O)NC1CCCCC1	> 60 µM (inactive)	> 60	> 60
CCOC(=O)/C=C1\SCC(=O)N1CC(=O)NC(C)C	> 60 µM (inactive)	> 60	> 60
